Tests used:
[1] = target: T1, 3-phosphoshikimate 1-carboxyvinyltransferase (Escherichia coli K-12, UniProt P0A6D3); assay: Potency against EPSP synthase
T1 sequence (P0A6D3 whole entry): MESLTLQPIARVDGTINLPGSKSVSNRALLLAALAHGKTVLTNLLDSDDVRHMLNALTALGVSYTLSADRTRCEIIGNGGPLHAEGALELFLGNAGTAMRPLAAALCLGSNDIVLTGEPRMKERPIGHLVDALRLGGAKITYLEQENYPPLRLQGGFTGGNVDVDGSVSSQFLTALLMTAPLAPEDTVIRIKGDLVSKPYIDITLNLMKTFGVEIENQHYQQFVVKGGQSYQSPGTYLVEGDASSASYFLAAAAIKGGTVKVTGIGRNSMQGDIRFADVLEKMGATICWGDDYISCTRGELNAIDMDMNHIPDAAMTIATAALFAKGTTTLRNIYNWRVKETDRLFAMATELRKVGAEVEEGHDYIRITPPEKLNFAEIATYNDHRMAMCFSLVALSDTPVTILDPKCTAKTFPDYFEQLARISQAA

[2] = target: T1, 3-phosphoshikimate 1-carboxyvinyltransferase; assay: Dissociation constant of the at EPSP synthase was determined
[3] = target: T1, 3-phosphoshikimate 1-carboxyvinyltransferase; assay: Inhibition of the EPSP synthase by the compound expressed as weak apparent value
[4] = target: T1, 3-phosphoshikimate 1-carboxyvinyltransferase; assay: Inhibition of the EPSP synthase PEP-Pi site by the compound expressed as apparent value
[5] = target: T1, 3-phosphoshikimate 1-carboxyvinyltransferase; assay: Dissociation constant against EPSP synthase
[6] = target: T1, 3-phosphoshikimate 1-carboxyvinyltransferase; assay: Inhibition of EPSP synthase PEP-Pi site by the compound was expressed as apparent value

Question: For `N[C@@H]1CC(C(=O)O)=C[C@@H](OP(=O)(O)O)[C@H]1O`, which Ki [1] is on record?
Answer: 85 µM

Question: Which results are given for `O=C(O)CN(CP(=O)(O)O)[C@@H]1CC(C(=O)O)=C[C@@H](OP(=O)(O)O)[C@H]1O`?
Answer: Kd [2]: 8 µM; Ki [3]: 7.4 µM; Ki [4]: 13 µM

Question: Which results are given for `C[C@@](O[C@@H]1CC(C(=O)O)=C[C@@H](OP(=O)(O)O)[C@H]1O)(C(=O)O)P(=O)(O)O`?
Answer: Kd [5]: 0.015 µM; Ki [6]: 0.00011 µM; Ki [1]: 0.015 µM
